Test results from ChEMBL document CHEMBL5303573, “Mapping human microbiome drug metabolism by gut bacteria and their genes” (Nature, 2019).

assay: The drug is tested on Anaerococcus hydrogenalis strain: DSM7454 for biotransformation. The drug concentrations were measured before and after a 12-h incubation by liquid-chromatography-coupled mass spectrometry (LC–MS); details: 2 µM

Compound | Bacterial Biotransformation
CC(C)(Oc1ccc(CCNC(=O)c2ccc(Cl)cc2)cc1)C(=O)O [BEZAFIBRATE] | Compound metabolized
O=P1(N(CCCl)CCCl)NCCCO1 (stereo unspecified) [CYCLOPHOSPHAMIDE ANHYDROUS] | Compound NOT metabolized
CCOc1cc(CC(=O)N[C@@H](CC(C)C)c2ccccc2N2CCCCC2)ccc1C(=O)O [REPAGLINIDE] | Compound NOT metabolized
CC(NC(C)(C)C)C(=O)c1cccc(Cl)c1 (stereo unspecified) [BUPROPION] | Compound NOT metabolized

assay: The drug is tested on Ruminococcus torques strain: ATCC27756 for biotransformation. The drug concentrations were measured before and after a 12-h incubation by liquid-chromatography-coupled mass spectrometry (LC–MS); assay type: ADME; parameters: dose 2 uM, timepoint 0 vs 12 hours; details: 2 µM

Compound | Bacterial Biotransformation
CC(C)(Oc1ccc(CCNC(=O)c2ccc(Cl)cc2)cc1)C(=O)O [BEZAFIBRATE] | Compound metabolized
O=P1(N(CCCl)CCCl)NCCCO1 (stereo unspecified) [CYCLOPHOSPHAMIDE ANHYDROUS] | Compound NOT metabolized
CCOc1cc(CC(=O)N[C@@H](CC(C)C)c2ccccc2N2CCCCC2)ccc1C(=O)O [REPAGLINIDE] | Compound NOT metabolized
CC(NC(C)(C)C)C(=O)c1cccc(Cl)c1 (stereo unspecified) [BUPROPION] | Compound NOT metabolized

assay: The drug is tested on Bacteroides uniformis strain: ATCC8492 for biotransformation. The drug concentrations were measured before and after a 12-h incubation by liquid-chromatography-coupled mass spectrometry (LC–MS); details: 2 µM

Compound | Bacterial Biotransformation
CC(C)(Oc1ccc(CCNC(=O)c2ccc(Cl)cc2)cc1)C(=O)O [BEZAFIBRATE] | Compound metabolized
O=P1(N(CCCl)CCCl)NCCCO1 (stereo unspecified) [CYCLOPHOSPHAMIDE ANHYDROUS] | Compound NOT metabolized
CCOc1cc(CC(=O)N[C@@H](CC(C)C)c2ccccc2N2CCCCC2)ccc1C(=O)O [REPAGLINIDE] | Compound metabolized
CC(NC(C)(C)C)C(=O)c1cccc(Cl)c1 (stereo unspecified) [BUPROPION] | Compound NOT metabolized

assay: The drug is tested on Bacteroides dorei strain: DSM17855 for biotransformation. The drug concentrations were measured before and after a 12-h incubation by liquid-chromatography-coupled mass spectrometry (LC–MS); details: phocaeicola dorei, 2 µM

Compound | Bacterial Biotransformation
CC(C)(Oc1ccc(CCNC(=O)c2ccc(Cl)cc2)cc1)C(=O)O [BEZAFIBRATE] | Compound metabolized
CCOc1cc(CC(=O)N[C@@H](CC(C)C)c2ccccc2N2CCCCC2)ccc1C(=O)O [REPAGLINIDE] | Compound metabolized
CC(NC(C)(C)C)C(=O)c1cccc(Cl)c1 (stereo unspecified) [BUPROPION] | Compound NOT metabolized

details: limosilactobacillus reuteri cf48-3a, 12 h, 2 µM
Description: The drug is tested on Lactobacillus reuteri CF48-3A strain: BEI HM-102 for biotransformation. The drug concentrations were measured before and after a 12-h incubation by liquid-chromatography-coupled mass spectrometry (LC–MS)

Compound | Bacterial Biotransformation
CC(C)(Oc1ccc(CCNC(=O)c2ccc(Cl)cc2)cc1)C(=O)O [BEZAFIBRATE] | Compound metabolized
CC(NC(C)(C)C)C(=O)c1cccc(Cl)c1 (stereo unspecified) [BUPROPION] | Compound NOT metabolized

details: bifidobacterium adolescentis, 12 h, 2 µM
Description: The drug is tested on Bifidobacterium adolescentis strain: ATCC 15703 for biotransformation. The drug concentrations were measured before and after a 12-h incubation by liquid-chromatography-coupled mass spectrometry (LC–MS)

Compound | Bacterial Biotransformation
CC(C)(Oc1ccc(CCNC(=O)c2ccc(Cl)cc2)cc1)C(=O)O [BEZAFIBRATE] | Compound metabolized
O=P1(N(CCCl)CCCl)NCCCO1 (stereo unspecified) [CYCLOPHOSPHAMIDE ANHYDROUS] | Compound NOT metabolized
CCOc1cc(CC(=O)N[C@@H](CC(C)C)c2ccccc2N2CCCCC2)ccc1C(=O)O [REPAGLINIDE] | Compound NOT metabolized

assay: The drug is tested on Providencia stuartii strain: ATCC25827 for biotransformation. The drug concentrations were measured before and after a 12-h incubation by liquid-chromatography-coupled mass spectrometry (LC–MS); details: 2 µM

Compound | Bacterial Biotransformation
CC(C)(Oc1ccc(CCNC(=O)c2ccc(Cl)cc2)cc1)C(=O)O [BEZAFIBRATE] | Compound metabolized
O=P1(N(CCCl)CCCl)NCCCO1 (stereo unspecified) [CYCLOPHOSPHAMIDE ANHYDROUS] | Compound NOT metabolized
CCOc1cc(CC(=O)N[C@@H](CC(C)C)c2ccccc2N2CCCCC2)ccc1C(=O)O [REPAGLINIDE] | Compound NOT metabolized

assay: The drug is tested on Parabacteroides merdae strain: ATCC43184 for biotransformation. The drug concentrations were measured before and after a 12-h incubation by liquid-chromatography-coupled mass spectrometry (LC–MS); details: 2 µM

Compound | Bacterial Biotransformation
CC(C)(Oc1ccc(CCNC(=O)c2ccc(Cl)cc2)cc1)C(=O)O [BEZAFIBRATE] | Compound metabolized
O=P1(N(CCCl)CCCl)NCCCO1 (stereo unspecified) [CYCLOPHOSPHAMIDE ANHYDROUS] | Compound NOT metabolized
CCOc1cc(CC(=O)N[C@@H](CC(C)C)c2ccccc2N2CCCCC2)ccc1C(=O)O [REPAGLINIDE] | Compound NOT metabolized
CC(NC(C)(C)C)C(=O)c1cccc(Cl)c1 (stereo unspecified) [BUPROPION] | Compound metabolized

assay: The drug is tested on Edwardsiella tarda strain: ATCC23685 for biotransformation. The drug concentrations were measured before and after a 12-h incubation by liquid-chromatography-coupled mass spectrometry (LC–MS); details: 2 µM

Compound | Bacterial Biotransformation
CC(C)(Oc1ccc(CCNC(=O)c2ccc(Cl)cc2)cc1)C(=O)O [BEZAFIBRATE] | Compound metabolized
CCOc1cc(CC(=O)N[C@@H](CC(C)C)c2ccccc2N2CCCCC2)ccc1C(=O)O [REPAGLINIDE] | Compound NOT metabolized
CC(NC(C)(C)C)C(=O)c1cccc(Cl)c1 (stereo unspecified) [BUPROPION] | Compound NOT metabolized

assay: The drug is tested on Bacteroides pectinophilus strain: ATCC43243 for biotransformation. The drug concentrations were measured before and after a 12-h incubation by liquid-chromatography-coupled mass spectrometry (LC–MS); details: 2 µM

Compound | Bacterial Biotransformation
CC(C)(Oc1ccc(CCNC(=O)c2ccc(Cl)cc2)cc1)C(=O)O [BEZAFIBRATE] | Compound metabolized
CCOc1cc(CC(=O)N[C@@H](CC(C)C)c2ccccc2N2CCCCC2)ccc1C(=O)O [REPAGLINIDE] | Compound NOT metabolized

assay: The drug is tested on Eubacterium rectale strain: ATCC33656 for biotransformation. The drug concentrations were measured before and after a 12-h incubation by liquid-chromatography-coupled mass spectrometry (LC–MS); details: agathobacter rectalis, 2 µM

Compound | Bacterial Biotransformation
CC(C)(Oc1ccc(CCNC(=O)c2ccc(Cl)cc2)cc1)C(=O)O [BEZAFIBRATE] | Compound NOT metabolized
O=P1(N(CCCl)CCCl)NCCCO1 (stereo unspecified) [CYCLOPHOSPHAMIDE ANHYDROUS] | Compound NOT metabolized
CCOc1cc(CC(=O)N[C@@H](CC(C)C)c2ccccc2N2CCCCC2)ccc1C(=O)O [REPAGLINIDE] | Compound NOT metabolized

assay: The drug is tested on Alistipes indistinctus strain: DSM22520 for biotransformation. The drug concentrations were measured before and after a 12-h incubation by liquid-chromatography-coupled mass spectrometry (LC–MS); details: 2 µM

Compound | Bacterial Biotransformation
CC(C)(Oc1ccc(CCNC(=O)c2ccc(Cl)cc2)cc1)C(=O)O [BEZAFIBRATE] | Compound NOT metabolized
O=P1(N(CCCl)CCCl)NCCCO1 (stereo unspecified) [CYCLOPHOSPHAMIDE ANHYDROUS] | Compound metabolized
CCOc1cc(CC(=O)N[C@@H](CC(C)C)c2ccccc2N2CCCCC2)ccc1C(=O)O [REPAGLINIDE] | Compound NOT metabolized
CC(NC(C)(C)C)C(=O)c1cccc(Cl)c1 (stereo unspecified) [BUPROPION] | Compound NOT metabolized

assay: The drug is tested on Bacteroides ovatus strain: ATCC8483 for biotransformation. The drug concentrations were measured before and after a 12-h incubation by liquid-chromatography-coupled mass spectrometry (LC–MS); details: 2 µM

Compound | Bacterial Biotransformation
CC(C)(Oc1ccc(CCNC(=O)c2ccc(Cl)cc2)cc1)C(=O)O [BEZAFIBRATE] | Compound metabolized
O=P1(N(CCCl)CCCl)NCCCO1 (stereo unspecified) [CYCLOPHOSPHAMIDE ANHYDROUS] | Compound NOT metabolized
CCOc1cc(CC(=O)N[C@@H](CC(C)C)c2ccccc2N2CCCCC2)ccc1C(=O)O [REPAGLINIDE] | Compound NOT metabolized
CC(NC(C)(C)C)C(=O)c1cccc(Cl)c1 (stereo unspecified) [BUPROPION] | Compound metabolized

details: parabacteroides johnsonii, 12 h, 2 µM
Description: The drug is tested on Parabacteroides johnsonii strain: DSM18315 for biotransformation. The drug concentrations were measured before and after a 12-h incubation by liquid-chromatography-coupled mass spectrometry (LC–MS)

Compound | Bacterial Biotransformation
CC(C)(Oc1ccc(CCNC(=O)c2ccc(Cl)cc2)cc1)C(=O)O [BEZAFIBRATE] | Compound NOT metabolized
O=P1(N(CCCl)CCCl)NCCCO1 (stereo unspecified) [CYCLOPHOSPHAMIDE ANHYDROUS] | Compound NOT metabolized
CCOc1cc(CC(=O)N[C@@H](CC(C)C)c2ccccc2N2CCCCC2)ccc1C(=O)O [REPAGLINIDE] | Compound metabolized
CC(NC(C)(C)C)C(=O)c1cccc(Cl)c1 (stereo unspecified) [BUPROPION] | Compound NOT metabolized

assay: The drug is tested on Anaerotruncus colihominis strain: DSM17241 for biotransformation. The drug concentrations were measured before and after a 12-h incubation by liquid-chromatography-coupled mass spectrometry (LC–MS); details: 2 µM

Compound | Bacterial Biotransformation
CC(C)(Oc1ccc(CCNC(=O)c2ccc(Cl)cc2)cc1)C(=O)O [BEZAFIBRATE] | Compound NOT metabolized
CCOc1cc(CC(=O)N[C@@H](CC(C)C)c2ccccc2N2CCCCC2)ccc1C(=O)O [REPAGLINIDE] | Compound NOT metabolized
CC(NC(C)(C)C)C(=O)c1cccc(Cl)c1 (stereo unspecified) [BUPROPION] | Compound NOT metabolized

assay: The drug is tested on Clostridium ramosum strain: DSM1402 for biotransformation. The drug concentrations were measured before and after a 12-h incubation by liquid-chromatography-coupled mass spectrometry (LC–MS); details: thomasclavelia ramosa, 2 µM

Compound | Bacterial Biotransformation
CC(NC(C)(C)C)C(=O)c1cccc(Cl)c1 (stereo unspecified) [BUPROPION] | Compound NOT metabolized

assay: The drug is tested on Ruminococcus gnavus strain: ATCC29149 for biotransformation. The drug concentrations were measured before and after a 12-h incubation by liquid-chromatography-coupled mass spectrometry (LC–MS); details: mediterraneibacter gnavus, 2 µM

Compound | Bacterial Biotransformation
CC(C)(Oc1ccc(CCNC(=O)c2ccc(Cl)cc2)cc1)C(=O)O [BEZAFIBRATE] | Compound NOT metabolized
O=P1(N(CCCl)CCCl)NCCCO1 (stereo unspecified) [CYCLOPHOSPHAMIDE ANHYDROUS] | Compound NOT metabolized
CCOc1cc(CC(=O)N[C@@H](CC(C)C)c2ccccc2N2CCCCC2)ccc1C(=O)O [REPAGLINIDE] | Compound NOT metabolized
CC(NC(C)(C)C)C(=O)c1cccc(Cl)c1 (stereo unspecified) [BUPROPION] | Compound NOT metabolized

assay: The drug is tested on Enterococcus faecalis strain: V583 for biotransformation. The drug concentrations were measured before and after a 12-h incubation by liquid-chromatography-coupled mass spectrometry (LC–MS); details: 2 µM

Compound | Bacterial Biotransformation
CC(C)(Oc1ccc(CCNC(=O)c2ccc(Cl)cc2)cc1)C(=O)O [BEZAFIBRATE] | Compound NOT metabolized
O=P1(N(CCCl)CCCl)NCCCO1 (stereo unspecified) [CYCLOPHOSPHAMIDE ANHYDROUS] | Compound NOT metabolized
CCOc1cc(CC(=O)N[C@@H](CC(C)C)c2ccccc2N2CCCCC2)ccc1C(=O)O [REPAGLINIDE] | Compound NOT metabolized
CC(NC(C)(C)C)C(=O)c1cccc(Cl)c1 (stereo unspecified) [BUPROPION] | Compound NOT metabolized

details: bacteroides fragilis, 12 h, 2 µM
Description: The drug is tested on Bacteroides fragilis strain: NCTC 9343 for biotransformation. The drug concentrations were measured before and after a 12-h incubation by liquid-chromatography-coupled mass spectrometry (LC–MS)

Compound | Bacterial Biotransformation
CC(C)(Oc1ccc(CCNC(=O)c2ccc(Cl)cc2)cc1)C(=O)O [BEZAFIBRATE] | Compound metabolized
O=P1(N(CCCl)CCCl)NCCCO1 (stereo unspecified) [CYCLOPHOSPHAMIDE ANHYDROUS] | Compound NOT metabolized
CC(NC(C)(C)C)C(=O)c1cccc(Cl)c1 (stereo unspecified) [BUPROPION] | Compound NOT metabolized

assay: The drug is tested on Bacteroides coprophilus strain: DSM18228 for biotransformation. The drug concentrations were measured before and after a 12-h incubation by liquid-chromatography-coupled mass spectrometry (LC–MS); details: 2 µM

Compound | Bacterial Biotransformation
CC(C)(Oc1ccc(CCNC(=O)c2ccc(Cl)cc2)cc1)C(=O)O [BEZAFIBRATE] | Compound metabolized
O=P1(N(CCCl)CCCl)NCCCO1 (stereo unspecified) [CYCLOPHOSPHAMIDE ANHYDROUS] | Compound NOT metabolized
CCOc1cc(CC(=O)N[C@@H](CC(C)C)c2ccccc2N2CCCCC2)ccc1C(=O)O [REPAGLINIDE] | Compound metabolized
CC(NC(C)(C)C)C(=O)c1cccc(Cl)c1 (stereo unspecified) [BUPROPION] | Compound metabolized
